Here are results for two molecules from PMC9525273 (Nature Communications, 2022).

The target in experiment [1] is T1, TgATP4^G419S-HA (membranes from T. gondii tachyzoites) (Toxoplasma gondii, UniProt B9QMJ0, G419S).
T1 sequence (B9QMJ0 1-1338 G419S): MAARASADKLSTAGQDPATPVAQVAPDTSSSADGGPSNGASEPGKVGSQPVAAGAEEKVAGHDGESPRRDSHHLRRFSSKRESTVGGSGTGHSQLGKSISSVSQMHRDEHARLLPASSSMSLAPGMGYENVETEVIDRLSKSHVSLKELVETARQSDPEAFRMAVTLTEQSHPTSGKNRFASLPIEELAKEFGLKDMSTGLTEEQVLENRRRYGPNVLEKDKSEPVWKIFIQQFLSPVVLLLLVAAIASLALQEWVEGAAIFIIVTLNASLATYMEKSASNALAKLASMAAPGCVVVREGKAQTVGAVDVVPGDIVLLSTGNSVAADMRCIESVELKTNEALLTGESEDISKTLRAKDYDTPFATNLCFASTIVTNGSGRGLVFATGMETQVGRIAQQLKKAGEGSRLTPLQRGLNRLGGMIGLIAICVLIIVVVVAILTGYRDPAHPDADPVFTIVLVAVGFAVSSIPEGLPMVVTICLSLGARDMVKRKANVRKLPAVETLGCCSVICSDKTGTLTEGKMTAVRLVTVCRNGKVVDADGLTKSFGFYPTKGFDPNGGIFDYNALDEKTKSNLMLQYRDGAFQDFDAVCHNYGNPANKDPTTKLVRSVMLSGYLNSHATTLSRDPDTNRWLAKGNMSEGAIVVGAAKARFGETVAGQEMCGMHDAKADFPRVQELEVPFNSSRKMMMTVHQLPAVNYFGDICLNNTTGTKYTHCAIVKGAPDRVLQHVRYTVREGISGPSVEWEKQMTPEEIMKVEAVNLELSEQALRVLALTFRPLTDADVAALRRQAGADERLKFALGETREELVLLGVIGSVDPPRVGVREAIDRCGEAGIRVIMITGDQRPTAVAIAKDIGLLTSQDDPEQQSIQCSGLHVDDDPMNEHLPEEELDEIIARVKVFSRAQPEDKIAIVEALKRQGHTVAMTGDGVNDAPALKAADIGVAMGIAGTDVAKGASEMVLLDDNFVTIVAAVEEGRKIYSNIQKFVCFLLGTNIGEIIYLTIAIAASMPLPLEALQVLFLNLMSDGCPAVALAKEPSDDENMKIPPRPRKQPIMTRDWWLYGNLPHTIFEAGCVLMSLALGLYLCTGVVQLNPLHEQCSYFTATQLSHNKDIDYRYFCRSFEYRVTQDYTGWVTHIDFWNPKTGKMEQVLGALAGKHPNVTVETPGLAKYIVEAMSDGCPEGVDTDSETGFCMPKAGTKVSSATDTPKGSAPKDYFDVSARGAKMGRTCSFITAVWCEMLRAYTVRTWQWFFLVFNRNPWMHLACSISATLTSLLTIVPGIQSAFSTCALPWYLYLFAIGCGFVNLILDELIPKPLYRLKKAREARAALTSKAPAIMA
Briefly: Membrane ATPase assay, ATP4-associated (Na+-dependent) ATPase activity. The following applies: for IC50 for ATP4-associated ATPase activity: membranes from TgATP4G419S-HA, mean ± SEM. It is filed as biochemical. As for the experimental part: (§1) Membranes from isolated P. falciparum or extracellular T. gondii parasites were prepared by lysing parasites in ice-cold deionized water containing a 1:500 dilution of Protease Inhibitor Cocktail Set III (Merck Millipore), then washing the membrane preparation three times in ice-cold deionized water (with protease inhibitors present for the first two washes)[15]. Protein concentrations in the membrane preparations were measured using a Bradford assay. The PiColorLock Gold Phosphate Detection System (Innova Biosciences) was used to measure the production of Pi from hydrolysis of ATP[15]. Membrane preparations were diluted in either a high Na^+ solution (yielding final conditions in the reactions of 150 mM NaCl, 20 mM KCl, 2 mM MgCl2, 50 mM Tris, pH 7.2) or a Na^+-free solution (yielding final conditions of 150 mM choline chloride, 20 mM KCl, 2 mM MgCl2, 50 mM Tris, pH 7.2) to achieve a total protein concentration of 50 μg/mL. […] The reactions were performed at 37 °C, and were initiated by the addition of 1 mM ATP (Na2ATP۰3H2O; MP Biomedicals) and terminated 10 min later by adding 100 μL of reaction mixture (in duplicate) to 25 μL “Gold mix” in a 96-well plate. “Stabiliser” was added 3 min later, and the plates incubated at room temperature in the dark for 60 min before measuring absorbance at 635 nm. Background values (averaged from wells containing all components, but to which ATP was not added until after the membrane was exposed to Gold mix) were subtracted from the data. For each treatment, the ATPase activity associated with the (Na^+-dependent) PfATP4 and TgATP4 proteins was calculated by subtracting data obtained in the low Na^+ condition (containing only the 2 mM Na^+ introduced on addition of 1 mM Na2ATP) from that obtained in the high Na^+ condition.

Experiment [2] deals with T2, TgATP4^WT (membranes from T. gondii tachyzoites) (Toxoplasma gondii, UniProt B9QMJ0).
T2 sequence (B9QMJ0 1-1338): T1 sequence (B9QMJ0 1-1338 G419S)
The experiment is described as above. The following applies: for IC50 for inhibition of ATP4-associated ATPase activity, MEAN: WT T. gondii membranes, source data of Table 1 (nM there); for IC50 for ATP4-associated ATPase activity: membranes from WT T. gondii (TgATP4WT), mean ± SEM. Further details: IC50 for inhibition of ATP4-associated ATPase activity, MEAN: unit: nM. It is filed as biochemical. As for the experimental part: as §1

Where [3] appears, read: TgATP4G419S-HA membranes, source data of Table 1 (nM there).

The structures appear in SMILES notation. Where “and” joins values, the source holds several entries; their conditions need not be identical. Equal entries are not always repeated. Where two headings read alike, the source gives them in different places.

As for `C[C@H]1Cc2c([nH]c3cc(Cl)c(F)cc23)[C@@]2(N1)C(=O)Nc1ccc(Cl)cc12` [Cipargamin], the “IC50 for inhibition of ATP4-associated ATPase activity, MEAN” value amounted to 287.6 in experiment [1] (setting [3]) and 8.39 in experiment [2] (MEAN). For the same molecule, the results for the “IC50 for ATP4-associated ATPase activity” value in experiment [1] and in experiment [2] were 288 ± 111 (4) (P = 0.05) nM and 8.4 ± 5.8 (4) nM, respectively. Moreover, the remaining activity at 60 pM was determined as 98.4% in experiment [2] (WT T. gondii, Cipargamin 0.06 nM, MEAN, read-out: TgATP4-associated ATPase activity (% of control)) and 98.9% in experiment [2] (WT T. gondii, Cipargamin 0.06 nM, single experiments, read-out: TgATP4-associated ATPase activity (% of control)). Also, the “TgATP4-associated ATPase activity (% of control)” value in experiment [2] (WT T. gondii, Cipargamin 0.06 nM, single experiments) was 98.0 % of control; in experiment [2] (WT T. gondii, Cipargamin 0.12 nM, single experiments) it was 100.0 % of control and 99.7 % of control and 103.4 % of control; in experiment [2] (WT T. gondii, Cipargamin 0.24 nM, single experiments) it was 81.4 % of control and 81.6 % of control and 107.2 % of control and 96.9 % of control. The remaining activity at 0.00012 µM in experiment [2] (WT T. gondii, Cipargamin 0.12 nM, MEAN, read-out: TgATP4-associated ATPase activity (% of control)) was 101%; in experiment [2] (WT T. gondii, Cipargamin 0.12 nM, single experiments, read-out: TgATP4-associated ATPase activity (% of control)), 100%. For the same molecule, the remaining activity at 0.00024 µM in experiment [2] (WT T. gondii, Cipargamin 0.24 nM, MEAN, read-out: TgATP4-associated ATPase activity (% of control)) is 91.8%. For the same molecule, the remaining activity at 0.00049 µM in experiment [2] (WT T. gondii, Cipargamin 0.49 nM, MEAN, read-out: TgATP4-associated ATPase activity (% of control)) is 76.3%. Besides, in experiment [2] (WT T. gondii, Cipargamin 0.98 nM, MEAN, read-out: TgATP4-associated ATPase activity (% of control)), the remaining activity at 0.00098 µM is 66.1%. The remaining activity at 0.00195 µM in experiment [2] (WT T. gondii, Cipargamin 1.95 nM, MEAN, read-out: TgATP4-associated ATPase activity (% of control)) worked out at 47.3%. For the same molecule, the remaining activity at 0.0039 µM in experiment [2] (WT T. gondii, [cipargamin] 3.9 nM, MEAN, read-out: TgATP4-associated ATPase activity (% of control)) stood at 34.5%. Further, the remaining activity at 0.0078 µM in experiment [2] (WT T. gondii, [cipargamin] 7.8 nM, MEAN, read-out: TgATP4-associated ATPase activity (% of control)) was determined as 38.1%. Also, the remaining activity at 0.0156 µM in experiment [2] (WT T. gondii, [cipargamin] 15.6 nM, MEAN, read-out: TgATP4-associated ATPase activity (% of control)) was 21.9%. Also, in experiment [2] (WT T. gondii, [cipargamin] 31.3 nM, MEAN, read-out: TgATP4-associated ATPase activity (% of control)), the remaining activity at 0.0313 µM came out at 13.1%. The remaining activity at 0.0625 µM in experiment [2] (WT T. gondii, [cipargamin] 62.5 nM, MEAN, read-out: TgATP4-associated ATPase activity (% of control)) is 6.8%.

In the case of `N#Cc1cc(NC(=O)[C@H]2c3ccccc3C(=O)N(CC(F)(F)F)[C@@H]2c2cccnc2)ccc1F` [(+)-SJ733], the entries for the “IC50 for inhibition of ATP4-associated ATPase activity, MEAN” value in experiment [1] (setting [3]) and in experiment [2] (MEAN) were more than 4000 and 17.77, respectively. In experiment [1] (TgATP4G419S-HA membranes, single experiments, source data of Table 1 (nM there)), the “IC50 for inhibition of ATP4-associated ATPase activity” value was more than 4000. Besides, the “IC50 for ATP4-associated ATPase activity” value is listed as > 4000 (3) nM in experiment [1] and 17.8 ± 9.2 (3) nM in experiment [2]. Also, the remaining activity at 0.000122 µM in experiment [2] (WT T. gondii, [(+)-SJ733] 0.122 nM, MEAN, read-out: TgATP4-associated ATPase activity (% of control)) worked out at 105%; in experiment [2] (WT T. gondii, [(+)-SJ733] 0.122 nM, single experiments, read-out: TgATP4-associated ATPase activity (% of control)), 102%. For the same molecule, the “TgATP4-associated ATPase activity (% of control)” value in experiment [2] (WT T. gondii, [(+)-SJ733] 0.122 nM, single experiments, 0.000122 µM) is 99.5 % of control and 113.7 % of control; in experiment [2] (WT T. gondii, [(+)-SJ733] 0.244 nM, single experiments, 0.000244 µM) it was 103.7 % of control and 108.4 % of control; in experiment [2] (WT T. gondii, [(+)-SJ733] 0.5 nM, single experiments, 0.0005 µM), 96.1 % of control and 95.1 % of control; in experiment [2] (WT T. gondii, [(+)-SJ733] 1.0 nM, single experiments, 0.001 µM) it was 96.8 % of control and 112.7 % of control; in experiment [2] (WT T. gondii, [(+)-SJ733] 2.0 nM, single experiments, 0.002 µM) it was 71.9 % of control and 96.8 % of control and 118.4 % of control; in experiment [2] (WT T. gondii, [(+)-SJ733] 3.9 nM, single experiments, 0.0039 µM), 69.6 % of control and 88.2 % of control and 113.9 % of control. Moreover, the “TgATP4-associated ATPase activity (% of control)” value in experiment [2] (WT T. gondii, [(+)-SJ733] 7.8 nM, single experiments, 0.0078 µM) is 63.9 % of control and 63.6 % of control and 107.7 % of control. The remaining activity at 0.000244 µM is 104% in experiment [2] (WT T. gondii, [(+)-SJ733] 0.244 nM, MEAN, read-out: TgATP4-associated ATPase activity (% of control)) and 99.9% in experiment [2] (WT T. gondii, [(+)-SJ733] 0.244 nM, single experiments, read-out: TgATP4-associated ATPase activity (% of control)). The remaining activity at 0.0005 µM in experiment [2] (WT T. gondii, [(+)-SJ733] 0.5 nM, MEAN, read-out: TgATP4-associated ATPase activity (% of control)) turned out to be 93.6%; in experiment [2] (WT T. gondii, [(+)-SJ733] 0.5 nM, single experiments, read-out: TgATP4-associated ATPase activity (% of control)) it was 89.6%. For the same molecule, the remaining activity at 0.001 µM worked out at 102% in experiment [2] (WT T. gondii, [(+)-SJ733] 1.0 nM, MEAN, read-out: TgATP4-associated ATPase activity (% of control)) and 94.9% in experiment [2] (WT T. gondii, [(+)-SJ733] 1.0 nM, single experiments, read-out: TgATP4-associated ATPase activity (% of control)). The remaining activity at 0.002 µM in experiment [2] (WT T. gondii, [(+)-SJ733] 2.0 nM, MEAN, read-out: TgATP4-associated ATPase activity (% of control)) came out at 95.7%. The remaining activity at 0.0039 µM in experiment [2] (WT T. gondii, [(+)-SJ733] 3.9 nM, MEAN, read-out: TgATP4-associated ATPase activity (% of control)) was 90.6%. The remaining activity at 0.0078 µM in experiment [2] (WT T. gondii, [(+)-SJ733] 7.8 nM, MEAN, read-out: TgATP4-associated ATPase activity (% of control)) was determined as 78.4%. The remaining activity at 0.0156 µM in experiment [2] (WT T. gondii, [(+)-SJ733] 15.6 nM, MEAN, read-out: TgATP4-associated ATPase activity (% of control)) turned out to be 52.5%. In experiment [2] (WT T. gondii, [(+)-SJ733] 31.3 nM, MEAN, read-out: TgATP4-associated ATPase activity (% of control)), the remaining activity at 0.0313 µM amounted to 42.7%. Moreover, the remaining activity at 0.0625 µM in experiment [2] (WT T. gondii, [(+)-SJ733] 62.5 nM, MEAN, read-out: TgATP4-associated ATPase activity (% of control)) was 31.7%. Besides, in experiment [2] (WT T. gondii, [(+)-SJ733] 250 nM, MEAN, read-out: TgATP4-associated ATPase activity (% of control)), the remaining activity at 0.25 µM is 20.9%. Further, the remaining activity at 0.5 µM in experiment [2] (WT T. gondii, [(+)-SJ733] 500 nM, MEAN, read-out: TgATP4-associated ATPase activity (% of control)) worked out at 14.7%.
